Assay results published in the supplement of paper PMC13380429.

Tests used:
Settings in all cases: 72 h
[1] = system: Caco-2; assay: drug sensitivity score (DSS) for viability; higher = more toxic; extreme values may be limits of the assay
[2] = system: Calu-3; assay: as above
[3] = system: Vero E6; assay: as above
[4] = system: HepG2; assay: as above
[5] = system: U2OS; assay: as above
[6] = system: Caco-2; assay: cell viability relative to DMSO; higher = less toxic
[7] = system: Calu-3; assay: as above
[8] = system: Vero E6; assay: as above
[9] = system: HepG2; assay: as above
[10] = system: U2OS; assay: as above
[11] = system: Caco-2; assay: relative viability EC50 (midpoint between 100% and the lowest measured viability); higher = less toxic
[12] = system: Calu-3; assay: as above
[13] = system: Vero E6; assay: as above
[14] = system: HepG2; assay: as above
[15] = system: U2OS; assay: as above

Row | Structure (SMILES) | drug sensitivity score [1] | drug sensitivity score [2] | drug sensitivity score [3] | drug sensitivity score [4] | drug sensitivity score [5] | cell viability ([6]; 1 nM) [%] | cell viability ([6]; 10 nM) [%] | cell viability ([6]; 100 nM) [%] | cell viability ([6]; 1000 nM) [%] | cell viability ([6]; 10000 nM) [%] | cell viability ([7]; 1 nM) [%] | cell viability ([7]; 10 nM) [%] | cell viability ([7]; 100 nM) [%] | cell viability ([7]; 1000 nM) [%] | cell viability ([7]; 10000 nM) [%] | cell viability ([8]; 1 nM) [%] | cell viability ([8]; 10 nM) [%] | cell viability ([8]; 100 nM) [%] | cell viability ([8]; 1000 nM) [%] | cell viability ([8]; 10000 nM) [%] | cell viability ([9]; 1 nM) [%] | cell viability ([9]; 10 nM) [%] | cell viability ([9]; 100 nM) [%] | cell viability ([9]; 1000 nM) [%] | cell viability ([9]; 10000 nM) [%] | cell viability ([10]; 1 nM) [%] | cell viability ([10]; 10 nM) [%] | cell viability ([10]; 100 nM) [%] | cell viability ([10]; 1000 nM) [%] | cell viability ([10]; 10000 nM) [%] | relative viability EC50 [11] [µM] | relative viability EC50 [12] [µM] | relative viability EC50 [13] [µM] | relative viability EC50 [14] [µM] | relative viability EC50 [15] [µM]
1 | C[C@H](N)Cn1ccc2cc(F)c(Cl)cc21 [Ro-60-0175] | 0.6 | 0 | 0 | 0 | 0 | 94.9 | 90.9 | 101 | 95.8 | 85.2 | 93.7 | 92.3 | 87.4 | 95.6 | 87.2 | 104 | 98.4 | 100 | 95.3 | 96 | 99.5 | 101 | 106 | 99.8 | 103 | 96.5 | 106 | 96.9 | 104 | 93.3 | > 10 | > 10 | > 10 | > 10 | > 10
2 | Fc1ccc(-c2nc(-c3c(F)cccc3F)[nH]c2-c2ccncc2)cc1 [TA-01] | 1.5 | 1.6 | 0 | 0 | 0 | 105 | 109 | 99.9 | 84.7 | 96.1 | 104 | 107 | 97.2 | 85.2 | 94.6 | 112 | 106 | 95 | 94.7 | 93.7 | 108 | 97.3 | 94.3 | 99.4 | 98.4 | 108 | 112 | 101 | 98.6 | 95.9 | > 10 | > 10 | > 10 | > 10 | > 10
3 | CC(C)Cn1cnc2c(N)nc3ccccc3c21 [imiquimod] | 0 | 0 | 0 | 0 | 0 | 96.4 | 92.9 | 105 | 97.7 | 100 | 103 | 96 | 102 | 94.5 | 103 | 93.1 | 93.2 | 99 | 88.9 | 100 | 93.6 | 95.5 | 100 | 109 | 112 | 92.7 | 101 | 94.3 | 100 | 105 | > 10 | > 10 | > 10 | > 10 | > 10
4 | CC[C@H](C)n1cc(C)c2c(C(=O)NCc3c(C)cc(C)[nH]c3=O)cc(-c3ccc(N4CCNCC4)nc3)cc21 | 0 | 0 | 0 | 0.1 | 0 | 93.9 | 101 | 102 | 102 | 95.1 | 96.3 | 102 | 107 | 102 | 90.9 | 92.3 | 99.2 | 91.6 | 88.2 | 98.7 | 98.7 | 97.7 | 99.1 | 99 | 87.9 | 97.4 | 98.2 | 98.8 | 101 | 91.7 | > 10 | > 10 | > 10 | > 10 | > 10
5 | COc1c(C)c(C(=O)c2ccc(N)c(C(=O)O)c2)n2ccccc12 | 0 | 0 | 0 | 0 | 0 | 89.7 | 88.7 | 87.1 | 100 | 106 | 96.6 | 102 | 96 | 98.2 | 103 | 99.9 | 98.7 | 99.4 | 100 | 106 | 100 | 108 | 101 | 93.4 | 119 | 99.9 | 99.2 | 96.9 | 98.9 | 90.4 | > 10 | > 10 | > 10 | > 10 | > 10
6 | COc1ccc(C(=O)Nc2c(Cl)cncc2Cl)cc1OC1CCCC1 [piclamilast] | 0 | 0 | 0.8 | 0 | 0 | 96.6 | 97.3 | 102 | 107 | 98 | 97.5 | 89.4 | 102 | 99.9 | 87.5 | 98.3 | 95 | 92.4 | 91.4 | 82 | 90.4 | 86 | 92.7 | 102 | 101 | 98.2 | 95.7 | 103 | 98.3 | 94.8 | > 10 | > 10 | > 10 | > 10 | > 10
7 | COc1ccc(Cc2nccc3cc(OC)c(OC)cc23)cc1OC [papaverine] | 1.7 | 1.5 | 0 | 3.7 | 0 | 95 | 91.9 | 95.8 | 86.1 | 77.8 | 91.3 | 98.8 | 98.8 | 87.6 | 81.2 | 103 | 105 | 105 | 108 | 90.1 | 111 | 109 | 92.9 | 100 | 32.7 | 101 | 92.5 | 99 | 96.5 | 89.7 | > 10 | > 10 | > 10 | 3.17 | > 10
8 | Cn1ccc2cc(NC(=O)Nc3cccnc3)ccc21 | 0.2 | 0 | 0 | 0 | 0 | 100 | 97.9 | 88.7 | 84.5 | 95.8 | 108 | 97.6 | 98.1 | 94.9 | 98 | 105 | 102 | 103 | 97.7 | 103 | 91.5 | 102 | 92.3 | 95.8 | 97.2 | 105 | 98.8 | 101 | 97.1 | 100 | > 10 | > 10 | > 10 | > 10 | > 10
9 | CO/N=C(\C(=O)N[C@@H]1C(=O)N2C(C(=O)O)=C(CSc3nc(C)c(CC(=O)O)s3)CS[C@H]12)c1csc(N)n1 [cefodizime] | 0 | 0 | 0 | 0 | 0 | 89.2 | 89.8 | 105 | 100 | 89.3 | 98.9 | 93.5 | 89.3 | 86.3 | 96.8 | 93.3 | 95.8 | 89.4 | 99.6 | 106 | 88.6 | 105 | 98.8 | 97.3 | 103 | 96.1 | 95.5 | 99.4 | 97.7 | 98.9 | > 10 | > 10 | > 10 | > 10 | > 10
10 | Cc1cc(C)c(CNC(=O)c2cc(-c3ccc(N4CCN(C)CC4)nc3)cc3c2c(C)cn3C(C)C)c(=O)[nH]1 [GSK503] | 0 | 0 | 0 | 0.4 | 0 | 98.8 | 104 | 93.7 | 105 | 102 | 88.3 | 85.3 | 92.9 | 109 | 104 | 101 | 104 | 105 | 98.6 | 102 | 92.6 | 112 | 99.7 | 94.4 | 87.2 | 104 | 98.6 | 104 | 101 | 102 | > 10 | > 10 | > 10 | > 10 | > 10
11 | NCCc1cc(O)c(O)cc1O [oxidopamine] | 0 | 0 | 0 | 0 | 0 | 86.7 | 93.3 | 90.7 | 95.4 | 100 | 91.1 | 101 | 108 | 108 | 109 | 97.3 | 99.6 | 96.6 | 91.5 | 105 | 97.4 | 104 | 114 | 107 | 98.7 | 96 | 102 | 94.8 | 104 | 103 | > 10 | > 10 | > 10 | > 10 | > 10
12 | Cc1cc(NC(=O)Nc2ccc(F)c(F)c2)n(-c2ccccc2)n1 [ML297] | 0 | 0 | 0 | 0 | 0 | 96.9 | 97 | 95.9 | 108 | 99.2 | 103 | 98.5 | 105 | 97.4 | 98.7 | 104 | 99.5 | 98.2 | 102 | 99.5 | 105 | 90.5 | 108 | 91.6 | 98.1 | 97.1 | 101 | 101 | 103 | 98.2 | > 10 | > 10 | > 10 | > 10 | > 10
13 | COc1ccc2[nH]c(SCc3ncc(C)c(OC)c3C)nc2c1 [omeprazole-sulfide] | 0 | 0 | 0 | 0 | 0 | 104 | 96.1 | 113 | 96 | 101 | 89.7 | 102 | 101 | 103 | 90.6 | 106 | 89.6 | 87.8 | 94.9 | 95.7 | 105 | 99.6 | 99 | 94.4 | 102 | 96.8 | 97.8 | 96.5 | 102 | 96.8 | > 10 | > 10 | > 10 | > 10 | > 10
14 | COc1cc(/C=C/C(N)=O)cc(OC)c1OC [cintriamide] | 0 | 0 | 0 | 0 | 0 | 83 | 98.3 | 96 | 97.1 | 99.2 | 106 | 97.4 | 95.6 | 102 | 105 | 96.3 | 97.2 | 95.5 | 90.2 | 104 | 97.1 | 99.6 | 100 | 95.1 | 114 | 98.2 | 102 | 101 | 102 | 106 | > 10 | > 10 | > 10 | > 10 | > 10
15 | CN(C)CCOC(=O)COc1ccc(Cl)cc1 [meclofenoxate] | 0 | 0 | 0 | 0 | 0 | 94.5 | 98.1 | 96.2 | 97.4 | 99.5 | 98 | 95.8 | 87.8 | 106 | 106 | 95.5 | 93.4 | 95.3 | 92.8 | 111 | 92.2 | 93.8 | 105 | 94.4 | 108 | 92.5 | 99.7 | 97.3 | 98.3 | 103 | > 10 | > 10 | > 10 | > 10 | > 10
